Assay results from patent publication US20230027601A1, “METHOD FOR MANUFACTURING REVAUDIOSIDE-D-CONTAINING CRYSTALLIZED PRODUCT, AND REVAUDIOSIDE-D-CONTAINING CRYSTALLIZED PRODUCT” (SUNTORY HOLDINGS LIMITED, priority 2019, published 2023).

Test: saturated solubility of RebA and RebD in ethanol solvent (excess loading, 24 h stirring, filtrate measured with LCMS)
Format: physicochemical
Conditions: for saturated solubility: 90% by mass of EtOH, 10° C., values used in calculation of the degree of supersaturation; for saturated dissolution concentration: 90% ethanol solvent at 10° C., according to FIG. 1
Method: The saturated solubility is herein measured according to the following method. That is, 100 ml of a solvent having a predetermined methanol or ethanol concentration (w/w) is placed in a container (having a volume of 100 ml or 200 ml, suitably 200 ml), the liquid temperature is set to 10° C. by a water bath in advance, and then the solvent is stirred at 200 rpm, and a target substance is loaded in an excessive amount (amount until suspension is made). After 24 hours, a filtrate is obtained by a 0.45-um membrane filter, and the amount of the target substance (RebA or RebD) included in the filtrate is measured with LCMS. LCMS here used is suitably LCMS 8050 manufactured by Shimadzu Corporation.
Specifically, 100 ml of a solvent having a predetermined ethanol concentration (w/w) was placed in a […] glass container (separable round-bottomed flask, Tokyo Rikakikai Co., Ltd.), set to a predetermined temperature by a water bath (PCC-7000, Tokyo Rikakikai Co., Ltd.) in advance, and then stirred (SPZ-100, Tokyo Rikakikai Co., Ltd.) at 200 rpm, and RebA (J-100, Morita Kagaku Kogyo Co., Ltd.) or RebD (Jining Renewal & Joint International, China) was loaded in an excessive amount (amount until suspension was achieved). After 24 hours, a filtrate was obtained by a 0.45-um membrane filter, the amount of RebA or RebD included in the filtrate was measured with LCMS (LCMS 8050 manufactured by Shimadzu Corporation), and the solubility curve was created. The results are illustrated in FIG. 1.

SMILES | saturated solubility [ppm] | saturated dissolution concentration
C=C1C[C@@]23CC[C@H]4[C@@](C)(CCC[C@@]4(C)C(=O)O[C@@H]4O[C@H](CO)[C@@H](O)[C@H](O)[C@H]4O)[C@@H]2CC[C@]1(O[C@@H]1O[C@H](CO)[C@@H](O)[C@H](O[C@@H]2O[C@H](CO)[C@@H](O)[C@H](O)[C@H]2O)[C@H]1O[C@@H]1O[C@H](CO)[C@@H](O)[C@H](O)[C@H]1O)C3 [RebA, rebaudioside A] | 8270.5 | 8,250 ppm
C=C1C[C@@]23CC[C@H]4[C@@](C)(CCC[C@@]4(C)C(=O)O[C@@H]4O[C@H](CO)[C@@H](O)[C@H](O)[C@H]4O[C@@H]4O[C@H](CO)[C@@H](O)[C@H](O)[C@H]4O)[C@@H]2CC[C@]1(O[C@@H]1O[C@H](CO)[C@@H](O)[C@H](O[C@@H]2O[C@H](CO)[C@@H](O)[C@H](O)[C@H]2O)[C@H]1O[C@@H]1O[C@H](CO)[C@@H](O)[C@H](O)[C@H]1O)C3 [RebD, rebaudioside D] | 99.33 | 99.3 ppm
